What was measured:
cellulites = test: PDT treatment of cellulites with Temoporfin solution by Mesotherapy and diode laser (Example 1); assay type: in vivo, patient; settings: 1 session per area, followed by appropriate physiotherapy / complementary session (ultrasound, lymph-drainage, electro-stimulation); evaluation after 30 days
Method: A patient having cellulites is treated with Temoporfin in several sessions. The variables in this treatment program are as follows: • 1.—A determination of the grade of cellulites in the patient. • 2.—A determination of the dose and concentration of Temoporfin and to confirm that it produces an improvement on the cellulites, and to further insure that it is possible to apply it directly by Mesotherapy without the need of systemic introduction. • 3.—A determination as to the potency of Temoporfin based on the time of application to the time of laser application; and • 4.—A determination as to accompanying treatments. In this EXAMPLE, the patient is administered the Temoporfin solution as follows: In all sequences, the treatment consists 1 session only per area to be treated, and, if necessary, it is repeated in 30 days. In general, it was observed that only 1 session followed by appropriate physiotherapy, a complementary session (like ultrasound, lymph-drainage, isotonic and isometric electro-stimulation), was usually sufficient in more than 80% of the patients. If it was necessary to repeat it, an evaluation is done after 30 days. Table 2 presents further information as to the stage of cellulite, concentration of mTHPC (Temoporfin), dose, surface area being treated; strength, power level and time of laser radiation application. [table] […]

[1] = cited from earlier work
[2] = without light activation; cited from earlier work

Oc1cccc(-c2c3nc(c(-c4cccc(O)c4)c4ccc([nH]4)c(-c4cccc(O)c4)c4nc(c(-c5cccc(O)c5)c5ccc2[nH]5)CC4)C=C3)c1 [Temoporfin]
patients in whom only 1 session was usually sufficient (cellulites): more than 80 % of the patients | solubility in triglycerides [1]: not soluble in triglycerides | effect in the dark [2]: totally innocuous and inactive in the dark

Reference: US20070031482A1, “PDT treatment method for cellulites and cosmetic use” (CeramOptec Industries, Ind., priority 2005, published 2007)
